The source made the active and inactive calls. No cut-off for these calls is given here.

The test system of assay [1] is RBL-2H3. Put plainly: Antiinflammatory activity in rat RBL2H3 cells assessed as inhibition of DNP-BSA-induced TNF-alpha production preincubated for 15 mins prior DNP-BSA challenge measured after 30 mins by ELISA. It is filed as functional, cell-based. (In general: An ELISA detects its analyte on a solid surface through an enzyme-linked reagent.)
The subject of assay [2] is Radical scavenging activity. The assay is described as follows: Antioxidant activity assessed as DPPH radical scavenging activity after 30 mins by spectrophotometry. The assay is classed as functional.
For assay [3], the system named is RBL-2H3. The assay is described as follows: Antiinflammatory activity in rat RBL2H3 cells assessed as inhibition of DNP-BSA-induced TNF-alpha production at 1 nM preincubated for 15 mins prior DNP-BSA challenge measured after 30 mins by ELISA. It is filed as functional, cell-based.

What is called IC50 is the concentration that inhibits the measured activity by half. Turning to `COc1ccc2c(COC(=O)CCCCCn3cc(COc4ccc(-c5c(C)c(C)c(-c6ccc(O)cc6)c(O)c5O)cc4)nn3)cc(=O)oc2c1`, in assay [1], the IC50 worked out at 0.55 nM.
On to `Cc1c(C)c(-c2ccc(OCc3cn(CCCCCCNC(=O)CCCC[C@@H]4SC[C@@H]5NC(=O)N[C@@H]54)nn3)cc2)c(O)c(O)c1-c1ccc(O)cc1`, for which the concentration for half-maximal inhibition (IC50) in assay [1] came to 8.15 nM.
As a reminder, the EC50 is the concentration giving half of the maximal effect. In the case of `O=C(Cc1ccccc1)Oc1c(OC(=O)Cc2ccccc2)c(-c2ccc(O)cc2)c(O)c(O)c1-c1ccc(O)cc1` [VIALININ A], in assay [1], the half-maximal inhibitory concentration (IC50) worked out at 0.09 nM. For the same molecule, the EC50 in assay [2] turned out to be 14000 nM.
Consider `Cc1c(C)c(-c2ccc(O)cc2)c(O)c(O)c1-c1ccc(O)cc1`, for which the IC50 in assay [1] is 0.02 nM.
Turning to `COCOc1c(OCOC)c(-c2ccc(O)cc2)c(C)c(C)c1-c1ccc(O)cc1`, the half-maximal inhibitory concentration (IC50) in assay [1] amounted to 0.32 nM. The inhibition result in assay [3] was “Active”.

(Values after ChEMBL document CHEMBL2010773, “Design and synthesis of a vialinin A analog with a potent inhibitory activity of TNF-α production and its transformation into a couple of bioprobes” (Bioorg Med Chem Lett, 2012).)
